Converted amounts (≈) assume the structure as drawn. Structures can show the parent of a compound that is named as a salt. Blank lines part the entries; values can stand above or below the molecule they belong to.
What was measured:
[1] = acute toxicity (LD50); conditions: in vivo
[2] = test system: isolated guinea pig intestine (histamine); assay: spasmolytic action against histamine on the isolated guinea pig intestine; design: key to Spasmolytic action against Histamine (ED50): (--): reduction of 10%; --: reduction of 25%; ----: reduction of 50%; .phi.: substantially no action; conditions: histamine 10^-7 g/ml; for IC50: Cavia porcellus, read-out: Spasmolytic action against Histamine (ED50)
Experimental: (§1) The compounds according to the invention were also tested for their influence on coronary through-flow on the heart mechanogram and for their spasmolytic action.
(§2) The latter test was performed on the isolated guinea pig intestine by the method of R. Magnus ("Pflugers Archiv" Vol 102 (1904) p 123).

[3] = test system: reserpine ptosis; assay: reserpine antagonism (reserpine ptosis test); type: in vivo; conditions: for change in vivo at 25 mg/kg: po, 1 hr after 25 mg/kg of substance orally, read-out: % Influence on reserpine ptosis
Experimental: The therapeutic activity of compounds according to the invention was determined by measurement of reserpine antagonism (B. Rubin et al., "J. Pharmacol. exp. Therap." Vol 120 (1957) p 125) and by the effect on the fighting behaviour of fighting mice in the test arrangement of G. Y. Yen et al., (Arch. Int. Pharmacodyn, Vol 123 (1959) p 179).

[4] = test system: coronary vessels; assay: influence on coronary through-flow
Experimental: as §1

[5] = test system: isolated guinea pig intestine (acetylcholine); assay: spasmolytic action against acetylcholine on the isolated guinea pig intestine; design: key to Spasmolytic action against Acetylcholine (ED50): (--): reduction of 10%; --: reduction of 25%; ----: reduction of 50%; .phi.: substantially no action; conditions: acetylcholine 10^-7 g/ml; for IC50: Cavia porcellus, read-out: Spasmolytic action against Acetylcholine (ED50)
Experimental: as §1, §2

[6] = test system: isolated guinea pig intestine (BaCl2); assay: spasmolytic action against barium chloride on the isolated guinea pig intestine; design: key to Spasmolytic action against BaCl2 (ED50): (--): reduction of 10%; --: reduction of 25%; ----: reduction of 50%; .phi.: substantially no action; conditions: barium chloride 10^-4 mg/ml; for IC50: Cavia porcellus, read-out: Spasmolytic action against BaCl2 (ED50)
Experimental: as §1, §2

[7] = test system: dictyocaulus; conditions: in vivo; cited from earlier work
[8] = test system: filaria; conditions: in vivo; cited from earlier work
[9] = test system: heart; assay: influence on the heart mechanogram (heart muscle force); design: key to Action on the heart mechanogram: (--): reduction of 10%; --: reduction of 25%; ----: reduction of 50%; .phi.: substantially no action
Experimental: The compounds according to the invention were also tested for their influence on coronary through-flow on the heart mechanogram and for their spasmolytic action. […]

Structure (SMILES): O=C(C1Cc2ccccc2O1)N1CCN(Cc2ccccc2)CC1 (stereo not shown) [Compound 20, N-benzyl-2,3-dihydrocoumarillic acid piperazide]
LD50 ([1]; ip, i.p. mouse): 100 to 150 mg/kg | IC50 [2]: 1 µg/mL (≈ 3.1 µM) | change in vivo at 25 mg/kg [3]: -32% | Coronary through-flow: Change (initial or only value) ([4]; dose 10 (82 g)): +25% | Coronary through-flow: Change (initial or only value) ([4]; dose 50 (82 g)): +50% | IC50 [5]: 3 µg/mL (≈ 9.3 µM) | IC50 [6]: 0.3 µg/mL (≈ 0.93 µM)

Structure (SMILES): O=C(c1cc2ccccc2o1)N1CCN(Cc2ccc(F)cc2)CC1 [Compound 5, N-(4-fluorobenzyl)-coumarillic acid piperazide]
LD50 ([1]; ip, i.p. mouse): 100 to 250 mg/kg | change in vivo at 25 mg/kg [3]: -50%

IC50 [2]: 0.1 µg/mL (≈ 0.37 µM)
Structure (SMILES): O=C(c1ccco1)N1CCN(Cc2ccccc2)CC1 [Compound 21, N-benzyl-furan-2-carboxylic acid piperazide]
Spasmolytic action against Acetylcholine (ED50) [5]: .phi. | Spasmolytic action against BaCl2 (ED50) [6]: .phi.

Structure (SMILES): O=C(c1cc2ccccc2[nH]1)N1CCN(Cc2ccccc2)CC1 [Compound 30, N-Benzyl-indole-2-carboxylic acid piperazide]
Coronary through-flow: Change (initial or only value) ([4]; dose 10 (82 g)): +90% | Coronary through-flow: Duration (initial or only value) ([4]; dose 10 (82 g)): 12 min

Structure (SMILES): CCN(CC)C(=O)N1CCN(C)CC1 [4-methylpiperazinocarboxylic acid-(1)-diethylamide citrate]
use against dictyocaulus infections [7]: successfully used | use against filaria infections [8]: successfully used against filaria

Structure (SMILES): CC1=C(C(=O)N2CCN(Cc3cccs3)CC2)CCCO1 [Compound 28]
Spasmolytic action against Histamine (ED50) [2]: .phi. | Spasmolytic action against Acetylcholine (ED50) [5]: .phi. | Spasmolytic action against BaCl2 (ED50) [6]: .phi.

Structure (SMILES): O=C(c1cc2ccccc2o1)N1CCN(Cc2cccs2)CC1 [Compound 16, N-thenyl-coumarillic acid piperazide]
LD50 ([1]; ip, i.p. mouse): 100 to 250 mg/kg | LD50 ([1]; po, orally, mouse): 1980 mg/kg | Spasmolytic action against Histamine (ED50) [2]: .phi. | change in vivo at 25 mg/kg [3]: -54% | Spasmolytic action against Acetylcholine (ED50) [5]: .phi. | Spasmolytic action against BaCl2 (ED50) [6]: .phi.

IC50 [2]: 1 to 10 µg/mL (≈ 2.82 to 28.2 µM) | IC50 [6]: 1 to 10 µg/mL (≈ 2.82 to 28.2 µM)
Structure (SMILES): O=C(c1cc2ccccc2o1)N1CCN(Cc2ccc(Cl)cc2)CC1 [Compound 2, N-(4-chloro)-benzyl-coumarillic acid piperazide]
Spasmolytic action against Acetylcholine (ED50) [5]: >

Structure (SMILES): CC1=C(C(=O)N2CCN(Cc3c(C)cc(C)cc3C)CC2)CCCO1 [Compound 26, N-(2,4,6-Trimethylbenzyl)-N-2-methyl-5,6-dihydro-pyran-3-carbonyl-piperazine-hydrochloride]
Coronary through-flow: Change (initial or only value) ([4]; dose 30 (82 g)): +13% | Coronary through-flow: Duration (initial or only value) ([4]; dose 30 (82 g)): 5 min | Coronary through-flow: Change (initial or only value) ([4]; dose 100 (82 g)): +21% | Coronary through-flow: Duration (initial or only value) ([4]; dose 100 (82 g)): > 12 min

Action on the heart mechanogram ([9]; dose 10 (82 g)): .phi. | Action on the heart mechanogram ([9]; dose 30 (82 g)): .phi.
Structure (SMILES): O=C(c1cc2ccccc2o1)N1CCCN(Cc2ccccc2)CC1 [Compound 17, N-benzyl-coumarillic acid homopiperazide]
Coronary through-flow: Change (initial or only value) ([4]; dose 10 (82 g)): +8% | Coronary through-flow: Duration (initial or only value) ([4]; dose 10 (82 g)): 1.0 min | Coronary through-flow: Change (initial or only value) ([4]; dose 30 (82 g)): +25% | Coronary through-flow: Duration (initial or only value) ([4]; dose 30 (82 g)): 1.0 min

IC50 [2]: 1 to 10 µg/mL (≈ 2.71 to 27.1 µM) | Action on the heart mechanogram ([9]; dose 6 (82 g)): (--) (reduction of 10%) | reduction of the heart muscle force ([9]; dose of 30 μg): less than 25% | IC50 [5]: 1 to 10 µg/mL (≈ 2.71 to 27.1 µM) | IC50 [6]: > 10 µg/mL
Structure (SMILES): CC1=C(C(=O)N2CCN(Cc3ccc(Cl)c(Cl)c3)CC2)CCCO1 [Compound 25, N-3,4-dichlorobenzyl-[6-methyl-2,3-dihydropyran-5-carboxylic acid]-piperazide]
Coronary through-flow: Duration (initial or only value) ([4]; dose 6 (82 g)): 8.0 min | Coronary through-flow: Change (initial or only value) ([4]; dose 30 (82 g)): +31% | Coronary through-flow: Duration (initial or only value) ([4]; dose 30 (82 g)): 27.0 min

IC50 [2]: > 10 µg/mL | IC50 [5]: > 10 µg/mL | IC50 [6]: > 10 µg/mL
Structure (SMILES): CC1OCCCC1C(=O)N1CCN(Cc2ccccc2)CC1 (stereo not shown) [Compound 29, N-benzyl-[6-methyl-tetrahydropyran-5-carboxylic acid]-piperazide]

Structure (SMILES): CC1=C(C(=O)N2CCN(Cc3ccccc3)CC2)CCCO1 [Compound 24, N-benzyl-[6-methyl-2,3-dihydropyran-5-carboxylic acid]piperazide]
Spasmolytic action against Histamine (ED50) [2]: .phi. | Spasmolytic action against Acetylcholine (ED50) [5]: .phi. | Spasmolytic action against BaCl2 (ED50) [6]: .phi.

Structure (SMILES): O=C(c1cc2ccccc2o1)N1CCN(Cc2ccc(Cl)c(Cl)c2)CC1 [Compound 3, N-(3,4-dichlorobenzyl)-coumarillic acid piperazide]
LD50 ([1]; ip, i.p. mouse): 1000 to 1500 mg/kg | change in vivo at 25 mg/kg [3]: -22%

Structure (SMILES): CN(C)CCCN1c2ccccc2CCc2ccccc21 [Imipramine, 5-(3'-dimethylaminopropyl)-10-11-dihydro-5-H-dibenz-[b,f]-azepine hydrochloride, reference compound]
IC50 [2]: 0.001 µg/mL | activity in reserpine test (in words) ([3]; in vivo): high activity | change in vivo at 25 mg/kg [3]: -76% | action on coronary flow / coronary vessels (in words) [4]: initially a brief rise in coronary flow but this changes into a long contraction, and thus damages the heart | Coronary through-flow: Change (initial or only value) ([4]; dose 10 (82 g)): +19% | Coronary through-flow: Change (second value, subsequent contraction) ([4]; dose 10 (82 g)): -18% | Coronary through-flow: Duration (initial or only value) ([4]; dose 10 (82 g)): 0.5 min | Coronary through-flow: Duration (second value, subsequent contraction) ([4]; dose 10 (82 g)): 21 min | Coronary through-flow: Change (initial or only value) ([4]; dose 20 (82 g)): +28% | Coronary through-flow: Change (second value, subsequent contraction) ([4]; dose 20 (82 g)): -29% | Coronary through-flow: Duration (initial or only value) ([4]; dose 20 (82 g)): 0.6 min | Coronary through-flow: Duration (second value, subsequent contraction) ([4]; dose 20 (82 g)): 26 min | Coronary through-flow: Change (initial or only value) ([4]; dose 30 (82 g)): +84% | Coronary through-flow: Change (second value, subsequent contraction) ([4]; dose 30 (82 g)): -22% | Coronary through-flow: Duration (second value, subsequent contraction) ([4]; dose 30 (82 g)): > 10 min | Action on the heart mechanogram ([9]; dose 10 (82 g)): -- (reduction of 25%) | Action on the heart mechanogram ([9]; dose 20 (82 g)): -- (reduction of 25%) | Action on the heart mechanogram ([9]; dose 30 (82 g)): ---- (reduction of 50%) | reduction of the heart muscle force ([9]; dose of 10 μg): 25% | reduction of the heart muscle force ([9]; dose of 20 μg): 25% | reduction of the heart muscle force ([9]; dose of 30 μg): 50% | IC50 [5]: 0.01 to 0.1 µg/mL | IC50 [6]: 0.1 to 1 µg/mL

Structure (SMILES): O=C(c1cc2ccccc2o1)N1CCN(Cc2ccccc2)CC1 [Compound 1, N-Benzyl-coumarillic acid piperazide]
LD50 ([1]; ip, i.p. mouse): 320 mg/kg | LD50 ([1]; po, orally, mouse): 2050 mg/kg | IC50 [2]: 1 to 10 µg/mL (≈ 3.12 to 31.2 µM) | change in vivo at 25 mg/kg [3]: -50% | action on coronary flow / coronary vessels (in words) [4]: considerable increase in the coronary through-flow without subsequent contraction of the vessel | Coronary through-flow: Duration (initial or only value) ([4]; dose 10 (82 g)): 0.5 min | Coronary through-flow: Change (initial or only value) ([4]; dose 30 (82 g)): +38% | Coronary through-flow: Duration (initial or only value) ([4]; dose 30 (82 g)): 1.0 min | Coronary through-flow: Change (initial or only value) ([4]; dose 100 (82 g)): +120% | Coronary through-flow: Duration (initial or only value) ([4]; dose 100 (82 g)): 26.0 min | Action on the heart mechanogram ([9]; dose 10 (82 g)): .phi. | Action on the heart mechanogram ([9]; dose 30 (82 g)): .phi. | Action on the heart mechanogram ([9]; dose 100 (82 g)): -- (reduction of 25%) | reduction of the heart muscle force ([9]; dose of 100 μg): 25% | IC50 [5]: 10 µg/mL (≈ 31.2 µM) | IC50 [6]: 1 to 10 µg/mL (≈ 3.12 to 31.2 µM)

Structure (SMILES): O=C(c1cccs1)N1CCN(Cc2cccs2)CC1 [Compound 42]
LD50 ([1]; ip, i.p. mouse): 100 to 250 mg/kg | change in vivo at 25 mg/kg [3]: -49%

Structure (SMILES): O=C(c1ccco1)N1CCN(Cc2ccc(Cl)c(Cl)c2)CC1 [Compound 22, N-3,4-dichlorobenzyl-furan-2-carboxylic acid piperazide]
LD50 ([1]; ip, i.p. mouse): 250 to 500 mg/kg | change in vivo at 25 mg/kg [3]: -23%
